Assay results reported in patent US7705002B2, “Biaryls useful as modulators of ion channels” (Vertex Pharmaceuticals Incorporated, priority 2005, dated 2010).
Where two headings read alike, the source gives them in different places.

Tests used:
[1] = target: T1, NaV1.8 (Homo sapiens, UniProt Q9Y5Y9); assay: Activity against NaV 1.8 channel (Table 4); type: cell-based
Protocol: Compounds of the invention are useful as antagonists of voltage-gated sodium ion channels. Antagonist properties of test compounds were assessed as follows. Cells expressing the NaV of interest were placed into microtiter plates. After an incubation period, the cells were stained with fluorescent dyes sensitive to the transmembrane potential. The test compounds were added to the microtiter plate. The cells were stimulated with either a chemical or electrical means to evoke a NaV dependent membrane potential change from unblocked channels, which was detected and measured with trans-membrane potential-sensitive dyes. Antagonists were detected as a decreased membrane potential response to the stimulus. The optical membrane potential assay utilized voltage-sensitive FRET sensors described by Gonzalez and Tsien (See, Gonzalez, J. E. and R. Y. Tsien (1995) “Voltage sensing by fluorescence resonance energy transfer in single cells” Biophys J 69(4): 1272-80, and Gonzalez, J. E. and R. Y. Tsien (1997) “Improved indicators of cell membrane potential that use fluorescence resonance energy transfer” Chem Biol 4(4): 269-77) in combination with instrumentation for measuring fluorescence changes such as the Voltage/Ion Probe Reader (VIPR®) (See, Gonzalez, J. E., K. Oades, et al. (1999) “Cell-based assays and instrumentation for screening ion-channel targets” Drug Discov Today 4(9): 431-439).
24 hours before the assay on VIPR, CHO cells endogenously expressing a NaV1.2 type voltage-gated NaV are seeded in 96-well poly-lysine coated plates at 60,000 cells per well. […] The cells are then incubated for 20-30 minutes. • 7) Once the incubation is complete, the cells are ready to be assayed on VIPR® with a sodium addback protocol. […]
Control responses are obtained by performing assays in the presence of a compound with the desired properties (positive control), such as tetracaine, and in the absence of pharmacological agents (negative control). Responses to the negative (N) and positive (P) controls are calculated as above. […]

[2] = target: T1, NaV1.8; conditions: read-out: TTX IC50; cited from earlier work
[3] = in vivo; cited from earlier work

T1 sequence (Q9Y5Y9 whole entry, looked up): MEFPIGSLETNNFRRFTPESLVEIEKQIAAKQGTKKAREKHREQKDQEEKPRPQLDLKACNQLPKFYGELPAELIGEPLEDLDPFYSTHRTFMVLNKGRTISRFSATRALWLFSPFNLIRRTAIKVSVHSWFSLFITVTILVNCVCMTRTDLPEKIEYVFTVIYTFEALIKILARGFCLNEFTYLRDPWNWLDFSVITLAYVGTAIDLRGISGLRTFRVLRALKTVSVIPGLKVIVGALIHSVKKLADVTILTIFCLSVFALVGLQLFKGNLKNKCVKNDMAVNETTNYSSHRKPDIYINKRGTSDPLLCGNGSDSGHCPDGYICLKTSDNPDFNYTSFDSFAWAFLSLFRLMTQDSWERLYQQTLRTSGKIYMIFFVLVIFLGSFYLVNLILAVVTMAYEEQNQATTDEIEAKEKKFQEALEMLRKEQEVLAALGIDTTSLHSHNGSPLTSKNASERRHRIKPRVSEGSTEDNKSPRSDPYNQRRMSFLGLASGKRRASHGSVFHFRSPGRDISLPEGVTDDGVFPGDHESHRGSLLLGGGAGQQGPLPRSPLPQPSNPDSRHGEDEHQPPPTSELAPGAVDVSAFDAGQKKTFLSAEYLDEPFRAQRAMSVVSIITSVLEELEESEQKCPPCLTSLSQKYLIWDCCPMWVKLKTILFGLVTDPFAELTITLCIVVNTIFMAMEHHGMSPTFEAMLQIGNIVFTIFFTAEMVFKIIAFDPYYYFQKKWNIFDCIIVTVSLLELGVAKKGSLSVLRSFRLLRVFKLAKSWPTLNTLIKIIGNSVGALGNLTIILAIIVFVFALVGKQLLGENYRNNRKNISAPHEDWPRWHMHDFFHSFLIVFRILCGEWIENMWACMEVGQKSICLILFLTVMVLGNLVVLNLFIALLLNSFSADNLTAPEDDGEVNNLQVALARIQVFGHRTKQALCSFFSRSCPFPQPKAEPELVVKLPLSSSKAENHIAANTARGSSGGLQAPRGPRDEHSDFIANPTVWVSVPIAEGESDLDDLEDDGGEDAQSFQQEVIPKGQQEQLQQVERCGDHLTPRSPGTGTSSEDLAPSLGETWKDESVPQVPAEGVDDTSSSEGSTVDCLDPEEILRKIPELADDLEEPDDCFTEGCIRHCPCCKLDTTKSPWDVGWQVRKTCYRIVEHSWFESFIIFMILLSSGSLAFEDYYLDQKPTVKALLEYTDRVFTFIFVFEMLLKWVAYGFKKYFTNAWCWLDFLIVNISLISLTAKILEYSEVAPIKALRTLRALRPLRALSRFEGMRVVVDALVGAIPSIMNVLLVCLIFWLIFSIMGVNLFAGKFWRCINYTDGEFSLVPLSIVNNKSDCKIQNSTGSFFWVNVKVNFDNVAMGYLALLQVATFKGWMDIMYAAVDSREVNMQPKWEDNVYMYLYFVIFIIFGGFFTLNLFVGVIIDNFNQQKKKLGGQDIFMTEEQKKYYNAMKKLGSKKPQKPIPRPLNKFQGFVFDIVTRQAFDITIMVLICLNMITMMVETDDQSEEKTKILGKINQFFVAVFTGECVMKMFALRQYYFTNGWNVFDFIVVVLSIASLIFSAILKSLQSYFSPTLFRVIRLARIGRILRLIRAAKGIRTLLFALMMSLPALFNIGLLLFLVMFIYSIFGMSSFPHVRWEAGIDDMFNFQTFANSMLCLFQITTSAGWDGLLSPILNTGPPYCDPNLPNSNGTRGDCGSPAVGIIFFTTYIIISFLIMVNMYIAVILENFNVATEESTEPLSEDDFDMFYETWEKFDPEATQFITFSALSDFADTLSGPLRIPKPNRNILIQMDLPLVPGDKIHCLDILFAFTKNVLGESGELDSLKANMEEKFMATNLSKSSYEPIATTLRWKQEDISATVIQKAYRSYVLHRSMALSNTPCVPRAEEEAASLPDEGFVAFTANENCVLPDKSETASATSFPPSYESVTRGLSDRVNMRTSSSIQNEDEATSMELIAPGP

Row | SMILES | IC50 [1] [µM] | further results
1 | CC(C)COC(=O)N1CCN(c2cccc(-c3ccccc3O)c2)CC1 [Compound 3, 4-[3-(2-hydroxyphenyl)phenyl]piperazine-1-carboxylic acid isobutyl ester] | > 15 | 
2 | NC1=N[C@H](O)[C@H]2[C@H]3O[C@]4(O)O[C@@H]([C@@H](O)[C@@]2(N1)[C@@H]4O)[C@]3(O)CO [TTX, tetrodotoxin] |  | IC50 [2]: > 50 µM
3 | CC(C)CC(O)C(=O)N1CCN(c2cccc(-c3ccccc3O)c2)CC1 (centres unmarked) [Compound 1, 2-hydroxy-1-[4-[3-(2-hydroxyphenyl)phenyl]piperazin-1-yl]-4-methyl-pentan-1-one] | > 15 | 
4 | CC(C)C[C@@H](O)C(=O)N1CCN(c2cccc(-c3ccccc3C(F)F)c2)CC1 [Compound 2, 1-[4-[3-[2-(difluoromethyl)phenyl]phenyl]piperazin-1-yl]-2-hydroxy-4-methyl-pentan-1-one] | < 10 | 
5 | NCC1(CC(=O)O)CCCCC1 [Gabapentin] |  | share of patients in which it works [3]: 60%
